Measurements as given in ChEMBL document CHEMBL3046894, “Synthesis and Herbicidal Activity of Pyrimidinyl Salicylic and Thiosalicylic Acids” (J Pestic Sci, 1996).
The source made the active and inactive calls. The rule behind the calls is not given here.

Columns and labels:
Cyperus iria [1] = assay: Pre-emergence herbicidal activity against Cyperus iria assessed as growth inhibition at 25 g a.i/10 a; format: functional, organism-based
Xanthium strumarium [2] = assay: Pre-emergence herbicidal activity against Xanthium strumarium (cocklebur) assessed as mortality at 1.6 g a.i/10 a; format: functional; settings: Xanthium strumarium, pre-emergence
Gossypium hirsutum [3] = assay: Post-emergence phytotoxicity against Gossypium hirsutum (cotton) assessed as mortality at 1.6 g a.i/10 a applied 11 days after germination as foliar spray; format: organism-based; settings: in vivo, other, 264 h
Echinochloa crus-galli [4] = assay: Pre-emergence herbicidal activity against Echinochloa crus-galli (barnyard grass) assessed as mortality at 6.3 g a.i/10 a; format: functional; settings: Echinochloa crus-galli, pre-emergence
Echinochloa crus-galli [5] = assay: Pre-emergence herbicidal activity against Echinochloa crus-galli (barnyard grass) assessed as growth inhibition at 25 g a.i/10 a; format: functional, organism-based
Glycine max [6] = assay: Pre-emergence phytotoxicity against Glycine max (soybean) assessed as mortality at 1.6 g a.i/10 a; format: organism-based; settings: in vivo, other
Chenopodium album [7] = assay: Post-emergence herbicidal activity against Chenopodium album assessed as growth inhibition at 25 g a.i/10 a applied 11 days after germination as foliar spray; format: functional, organism-based
Glycine max [8] = assay: (§1) Pre-emergence phytotoxicity against Glycine max (soybean) assessed as mortality at 6.3 g a.i/10 a; format: organism-based; settings: in vivo, other
Xanthium strumarium [9] = assay: Post-emergence herbicidal activity against Xanthium strumarium (cocklebur) assessed as mortality at 1.6 g a.i/10 a applied 11 days after germination as foliar spray; format: functional; settings: 264 h
[10] = Post-emergence phytotoxicity against Glycine max (soybean) assessed as mortality at 1.6 g a.i/10 a applied 11 days after germination as foliar spray; format: organism-based; settings: in vivo, 1.6 g a.i/10 a
Amaranthus retroflexus [11] = assay: Post-emergence herbicidal activity against Amaranthus retroflexus assessed as growth inhibition at 25 g a.i/10 a applied 11 days after germination as foliar spray; format: functional, organism-based
Ipomoea lacunosa [12] = assay: Pre-emergence herbicidal activity against Ipomoea lacunosa assessed as mortality at 1.6 g a.i/10 a; format: functional; settings: Ipomoea lacunosa, pre-emergence
Abutilon theophrasti [13] = assay: Post-emergence herbicidal activity against Abutilon theophrasti (velvetleaf) assessed as mortality at 1.6 g a.i/10 a applied 11 days after germination as foliar spray; format: functional; settings: 264 h
Digitaria sanguinalis [14] = assay: Pre-emergence herbicidal activity against Digitaria sanguinalis (hairy crabgrass) assessed as growth inhibition at 25 g a.i/10 a; format: functional, organism-based
[15] = Post-emergence phytotoxicity against Zea mays (maize) assessed as mortality at 1.6 g a.i/10 a applied 11 days after germination as foliar spray; format: organism-based; settings: in vivo, 1.6 g a.i/10 a
Amaranthus retroflexus [16] = assay: Pre-emergence herbicidal activity against Amaranthus retroflexus assessed as growth inhibition at 25 g a.i/10 a; format: functional, organism-based
Gossypium hirsutum [17] = assay: Pre-emergence phytotoxicity against Gossypium hirsutum (cotton) assessed as mortality at 6.3 g a.i/10 a; format: organism-based; settings: in vivo, other
Cyperus iria [18] = assay: Post-emergence herbicidal activity against Cyperus iria assessed as growth inhibition at 25 g a.i/10 a applied 11 days after germination as foliar spray; format: functional, organism-based
Persicaria nodosa [19] = assay: Pre-emergence herbicidal activity against Persicaria nodosa assessed as growth inhibition at 25 g a.i/10 a; format: functional, organism-based
Ipomoea lacunosa [20] = assay: Post-emergence herbicidal activity against Ipomoea lacunosa assessed as mortality at 1.6 g a.i/10 a applied 11 days after germination as foliar spray; format: functional; settings: 264 h
Echinochloa crus-galli [21] = assay: Post-emergence herbicidal activity against Echinochloa crus-galli (barnyard grass) assessed as growth inhibition at 25 g a.i/10 a applied 11 days after germination as foliar spray; format: functional, organism-based
Persicaria nodosa [22] = assay: Post-emergence herbicidal activity against Persicaria nodosa assessed as growth inhibition at 25 g a.i/10 a applied 11 days after germination as foliar spray; format: functional, organism-based
Echinochloa crus-galli [23] = assay: Post-emergence herbicidal activity against Echinochloa crus-galli (barnyard grass) assessed as mortality at 6.3 g a.i/10 a applied 11 days after germination as foliar spray; format: functional; settings: 264 h
Zea mays = assay: (§2) Pre-emergence phytotoxicity against Zea mays (maize) assessed as mortality at 1.6 g a.i/10 a; format: organism-based; settings: in vivo, other
Digitaria sanguinalis [24] = assay: Post-emergence herbicidal activity against Digitaria sanguinalis (hairy crabgrass) assessed as growth inhibition at 25 g a.i/10 a applied 11 days after germination as foliar spray; format: functional, organism-based
Chenopodium album [25] = assay: Pre-emergence herbicidal activity against Chenopodium album assessed as growth inhibition at 25 g a.i/10 a; format: functional, organism-based
Abutilon theophrasti [26] = assay: Post-emergence herbicidal activity against Abutilon theophrasti (velvetleaf) assessed as mortality at 6.3 g a.i/10 a applied 11 days after germination as foliar spray; format: functional; settings: 264 h
Gossypium hirsutum [27] = assay: (§3) Post-emergence phytotoxicity against Gossypium hirsutum (cotton) assessed as mortality at 6.3 g a.i/10 a applied 11 days after germination as foliar spray; format: organism-based; settings: in vivo, other, 264 h
[28] = as §1; format: organism-based; settings: in vivo, 6.3 g a.i/10 a, read-out: mortality
Xanthium strumarium [29] = assay: Pre-emergence herbicidal activity against Xanthium strumarium (cocklebur) assessed as mortality at 6.3 g a.i/10 a; format: functional; settings: Xanthium strumarium, pre-emergence
Abutilon theophrasti [30] = assay: Pre-emergence herbicidal activity against Abutilon theophrasti (velvetleaf) assessed as mortality at 6.3 g a.i/10 a; format: functional; settings: Abutilon theophrasti, pre-emergence
Ipomoea lacunosa [31] = assay: Pre-emergence herbicidal activity against Ipomoea lacunosa assessed as mortality at 6.3 g a.i/10 a; format: functional; settings: Ipomoea lacunosa, pre-emergence
[32] = as §3; format: organism-based; settings: in vivo, 6.3 g a.i/10 a
Amaranthus retroflexus [33] = assay: Pre-emergence herbicidal activity against Amaranthus retroflexus assessed as mortality per 10 acre; format: functional
Ipomoea lacunosa [34] = assay: Post-emergence herbicidal activity against Ipomoea lacunosa assessed as mortality per 10 acre; format: functional
Xanthium strumarium [35] = assay: Pre-emergence herbicidal activity against Xanthium strumarium (cocklebur) assessed as mortality per 10 acre; format: functional
Gossypium hirsutum [36] = assay: Post-emergence phytotoxicity against Gossypium hirsutum (cotton) assessed as mortality per 10 acre; format: organism-based; settings: in vivo
Ipomoea lacunosa [37] = assay: Pre-emergence herbicidal activity against Ipomoea lacunosa assessed as mortality per 10 acre; format: functional
Amaranthus retroflexus [38] = assay: Post-emergence herbicidal activity against Amaranthus retroflexus assessed as mortality per 10 acre; format: functional
Echinochloa crus-galli [39] = assay: Post-emergence herbicidal activity against Echinochloa crus-galli (barnyard grass) assessed as mortality per 10 acre; format: functional
Xanthium strumarium [40] = assay: Post-emergence herbicidal activity against Xanthium strumarium (cocklebur) assessed as mortality per 10 acre; format: functional
Gossypium hirsutum [41] = assay: Pre-emergence phytotoxicity against Gossypium hirsutum (cotton) assessed as mortality per 10 acre; format: organism-based; settings: in vivo
Persicaria nodosa [42] = assay: Pre-emergence herbicidal activity against Persicaria nodosa assessed as mortality per 10 acre; format: functional
Persicaria nodosa [43] = assay: Post-emergence herbicidal activity against Persicaria nodosa assessed as mortality per 10 acre; format: functional
[44] = as §2; format: organism-based; settings: in vivo, 1.6 g a.i/10 a, read-out: mortality
Echinochloa crus-galli [45] = assay: Pre-emergence herbicidal activity against Echinochloa crus-galli (barnyard grass) assessed as mortality per 10 acre; format: functional

Row | SMILES | growth inhibition (GI) (Cyperus iria [1]) | mortality at 16 g/ha (Xanthium strumarium [2]) [%] | Activity (Gossypium hirsutum [3]) | mortality at 63 g/ha (Echinochloa crus-galli [4]) [%] | growth inhibition (GI) (Echinochloa crus-galli [5]) | Activity (Glycine max [6]) | growth inhibition (GI) (Chenopodium album [7]) | mortality at 16 g/ha (Xanthium strumarium [9]) [%] | mortality at 264 h [10] [%] | growth inhibition (GI) (Amaranthus retroflexus [11]) | mortality at 16 g/ha (Ipomoea lacunosa [12]) [%] | growth inhibition (GI) (Digitaria sanguinalis [14]) | mortality at 264 h [15] [%] | growth inhibition (GI) (Amaranthus retroflexus [16]) | Activity (Gossypium hirsutum [17]) | growth inhibition (GI) (Cyperus iria [18]) | growth inhibition (GI) (Persicaria nodosa [19]) | growth inhibition (GI) (Echinochloa crus-galli [21]) | growth inhibition (GI) (Persicaria nodosa [22]) | mortality at 63 g/ha (Echinochloa crus-galli [23]) [%] | other results
1 | CCc1cccc(Oc2nc(OC)cc(OC)n2)c1C(=O)O | Active | < 5 | Toxic | > 90 | Active | Non-toxic | Active | < 5 | > 90 | Active | < 5 | Active | > 90 | Active | Non-toxic | Active | Active | Active | Active | > 90 | Activity (Glycine max [8]): Toxic; mortality at 16 g/ha (Abutilon theophrasti [13]): > 90%; mortality at 16 g/ha (Ipomoea lacunosa [20]): < 5%; Activity (Zea mays): Toxic; growth inhibition (GI) (Digitaria sanguinalis [24]): Active; growth inhibition (GI) (Chenopodium album [25]): Active; mortality at 63 g/ha (Abutilon theophrasti [26]): > 90%; Activity (Gossypium hirsutum [27]): Toxic
2 | COc1cc(OC)nc(Oc2cccc(OC)c2C(=O)O)n1 | Active | < 5 | Toxic | > 90 | Active | Non-toxic | Active | < 5 | > 90 | Active | < 5 | Active | > 90 | Active | Non-toxic | Active | Active | Active | Active | > 90 | mortality [28]: > 90%; mortality at 63 g/ha (Xanthium strumarium [29]): < 5%; mortality at 63 g/ha (Abutilon theophrasti [30]): > 90%; mortality at 16 g/ha (Abutilon theophrasti [13]): > 90%; Activity (Zea mays): Toxic; growth inhibition (GI) (Digitaria sanguinalis [24]): Active; growth inhibition (GI) (Chenopodium album [25]): Active; mortality at 63 g/ha (Ipomoea lacunosa [31]): < 5%; mortality at 63 g/ha (Abutilon theophrasti [26]): > 90%; mortality at 264 h [32]: > 90%
3 | COc1cc(OC)nc(Oc2cccc(C)c2C(=O)O)n1 | Active | < 5 | Non-toxic | > 90 | Active | Toxic | Active | < 5 | > 90 | Active | < 5 | Active | > 90 | Active | Non-toxic | Active | Active | Active | Active | > 90 | ED90 (Amaranthus retroflexus [33]): inactive; ED90 (Ipomoea lacunosa [34]): 100 gAi; ED90 (Xanthium strumarium [35]): >100 gAi; ED20 (Gossypium hirsutum [36]): 0.4 gAi; Activity (Glycine max [8]): Toxic; ED90 (Ipomoea lacunosa [37]): >100 gAi; ED90 (Amaranthus retroflexus [38]): 0.2 gAi; mortality at 16 g/ha (Ipomoea lacunosa [20]): < 5%; ED90 (Echinochloa crus-galli [39]): inactive; ED90 (Xanthium strumarium [40]): 25 gAi; ED20 (Gossypium hirsutum [41]): Toxic; ED90 (Persicaria nodosa [42]): Active; ED90 (Persicaria nodosa [43]): 0.4 gAi; mortality [44]: > 90%; growth inhibition (GI) (Digitaria sanguinalis [24]): Active; growth inhibition (GI) (Chenopodium album [25]): Active; mortality at 63 g/ha (Ipomoea lacunosa [31]): < 5%; mortality at 63 g/ha (Abutilon theophrasti [26]): > 90%; Activity (Gossypium hirsutum [27]): Non-toxic; ED90 (Echinochloa crus-galli [45]): Active
